Experiments:
[1] = DRUGMATRIX: Tumor Necrosis Factor (TNF), Non-Selective radioligand binding (ligand: [125I] TNF-alpha); format: cell membranes, Membrane; conditions: u-937; Not Active = under 50% inhibition at 10 µM
Vasopressin V1a receptor = Vasopressin V1a receptor (Homo sapiens, UniProt P37288); format: cell membranes, Membrane; conditions: hek293; further: in other assays of this panel Not Active means under 50% inhibition at 10 µM
[2] = molecular target: T1, C-X-C chemokine receptor type 1 (Homo sapiens, UniProt P25024); further: in other assays of this panel Not Active means under 50% inhibition at 10 µM
T1 sequence (P25024 whole entry): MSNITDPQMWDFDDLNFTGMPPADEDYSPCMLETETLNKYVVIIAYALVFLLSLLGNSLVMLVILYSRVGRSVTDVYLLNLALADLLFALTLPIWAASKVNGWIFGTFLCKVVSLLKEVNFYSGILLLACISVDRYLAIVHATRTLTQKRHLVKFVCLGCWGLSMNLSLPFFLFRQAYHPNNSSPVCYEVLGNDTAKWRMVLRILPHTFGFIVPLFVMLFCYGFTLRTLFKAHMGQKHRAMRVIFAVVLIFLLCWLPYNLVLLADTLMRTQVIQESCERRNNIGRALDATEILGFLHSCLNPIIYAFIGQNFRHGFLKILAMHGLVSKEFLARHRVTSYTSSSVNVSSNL

[3] = molecular target: T2, Neuropeptide Y receptor type 2 (Homo sapiens, UniProt P49146); format: cell membranes, KAN-TS, Membrane; conditions: kan-ts; further: in other assays of this panel Not Active means under 50% inhibition at 10 µM
T2 sequence (P49146 whole entry): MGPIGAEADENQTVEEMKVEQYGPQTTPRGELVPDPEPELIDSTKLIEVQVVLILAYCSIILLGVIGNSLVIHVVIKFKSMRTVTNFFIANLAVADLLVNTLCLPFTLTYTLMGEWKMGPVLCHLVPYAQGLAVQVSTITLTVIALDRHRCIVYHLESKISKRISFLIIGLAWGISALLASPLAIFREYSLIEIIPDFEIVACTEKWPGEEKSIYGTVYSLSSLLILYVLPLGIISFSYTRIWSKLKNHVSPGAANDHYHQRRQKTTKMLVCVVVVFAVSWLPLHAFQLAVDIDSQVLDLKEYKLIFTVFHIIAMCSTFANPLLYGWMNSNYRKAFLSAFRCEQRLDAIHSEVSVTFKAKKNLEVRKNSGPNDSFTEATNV

[4] = molecular target: Delta-type opioid receptor (Homo sapiens, UniProt P41143); format: cell membranes, Membrane; conditions: hek293; further: in other assays of this panel Not Active means under 50% inhibition at 10 µM
Sequence of Delta-type opioid receptor (P41143 whole entry): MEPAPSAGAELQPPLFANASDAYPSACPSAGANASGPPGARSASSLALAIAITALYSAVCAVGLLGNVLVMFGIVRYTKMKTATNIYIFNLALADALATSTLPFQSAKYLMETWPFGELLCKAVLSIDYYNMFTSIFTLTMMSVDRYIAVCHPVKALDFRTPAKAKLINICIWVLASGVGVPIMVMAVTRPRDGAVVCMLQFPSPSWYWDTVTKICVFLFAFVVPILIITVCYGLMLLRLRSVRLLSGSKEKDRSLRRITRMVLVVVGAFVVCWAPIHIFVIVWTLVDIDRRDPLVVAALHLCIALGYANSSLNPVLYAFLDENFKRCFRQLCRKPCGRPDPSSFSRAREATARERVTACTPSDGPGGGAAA

[5] = DRUGMATRIX: Phorbol Ester radioligand binding (ligand: [3H] PDBu); format: cell membranes, Mus musculus, ICR, Brain, Membrane; conditions: Not Active = under 50% inhibition at 10 µM
[6] = DRUGMATRIX: Phosphodiesterase PDE4 enzyme inhibition (substrate: [3H]cAMP + cAMP); conditions: u-937; Not Active = under 50% inhibition at 10 µM
[7] = molecular target: T3, Receptor-type tyrosine-protein phosphatase C (Homo sapiens, UniProt P08575); set-up: species or system Escherichia coli
T3 sequence (P08575 whole entry): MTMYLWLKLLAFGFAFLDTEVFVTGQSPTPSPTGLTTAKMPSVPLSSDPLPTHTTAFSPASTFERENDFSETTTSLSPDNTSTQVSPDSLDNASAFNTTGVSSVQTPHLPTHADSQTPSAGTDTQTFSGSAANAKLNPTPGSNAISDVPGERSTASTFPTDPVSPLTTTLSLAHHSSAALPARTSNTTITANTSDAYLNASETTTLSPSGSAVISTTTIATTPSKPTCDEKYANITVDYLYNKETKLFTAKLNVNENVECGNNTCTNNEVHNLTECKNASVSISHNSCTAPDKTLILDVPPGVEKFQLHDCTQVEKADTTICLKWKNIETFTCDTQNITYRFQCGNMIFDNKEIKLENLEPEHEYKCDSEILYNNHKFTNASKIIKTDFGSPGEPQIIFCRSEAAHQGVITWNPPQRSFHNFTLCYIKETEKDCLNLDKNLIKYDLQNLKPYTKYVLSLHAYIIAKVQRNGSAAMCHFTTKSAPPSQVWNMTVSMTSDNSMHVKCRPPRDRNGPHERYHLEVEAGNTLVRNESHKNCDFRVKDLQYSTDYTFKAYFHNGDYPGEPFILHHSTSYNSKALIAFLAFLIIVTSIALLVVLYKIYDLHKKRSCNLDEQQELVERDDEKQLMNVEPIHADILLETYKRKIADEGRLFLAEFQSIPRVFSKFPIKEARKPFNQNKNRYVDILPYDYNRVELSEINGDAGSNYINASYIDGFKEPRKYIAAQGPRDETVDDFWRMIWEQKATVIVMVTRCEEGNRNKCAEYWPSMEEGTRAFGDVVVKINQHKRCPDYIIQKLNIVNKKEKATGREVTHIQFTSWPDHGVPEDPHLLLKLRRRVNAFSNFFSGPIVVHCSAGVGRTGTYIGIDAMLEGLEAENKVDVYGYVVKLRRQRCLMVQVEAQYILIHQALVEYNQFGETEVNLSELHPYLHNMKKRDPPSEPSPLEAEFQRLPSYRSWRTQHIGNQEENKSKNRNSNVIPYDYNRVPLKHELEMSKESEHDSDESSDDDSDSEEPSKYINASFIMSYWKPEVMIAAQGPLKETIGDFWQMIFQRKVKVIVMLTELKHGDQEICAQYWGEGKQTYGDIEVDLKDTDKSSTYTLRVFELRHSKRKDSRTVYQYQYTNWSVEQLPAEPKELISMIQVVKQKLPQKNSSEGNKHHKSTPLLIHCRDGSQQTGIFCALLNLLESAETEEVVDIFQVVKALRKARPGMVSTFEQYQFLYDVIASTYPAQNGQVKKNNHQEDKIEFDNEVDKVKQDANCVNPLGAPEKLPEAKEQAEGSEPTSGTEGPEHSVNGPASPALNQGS

Cytochrome P450 2E1 = Cytochrome P450 2E1 (Homo sapiens, UniProt P05181); conditions: bti-tn-5b1-4; further: in other assays of this panel Not Active means under 50% inhibition at 10 µM
Sequence of Cytochrome P450 2E1 (P05181 whole entry): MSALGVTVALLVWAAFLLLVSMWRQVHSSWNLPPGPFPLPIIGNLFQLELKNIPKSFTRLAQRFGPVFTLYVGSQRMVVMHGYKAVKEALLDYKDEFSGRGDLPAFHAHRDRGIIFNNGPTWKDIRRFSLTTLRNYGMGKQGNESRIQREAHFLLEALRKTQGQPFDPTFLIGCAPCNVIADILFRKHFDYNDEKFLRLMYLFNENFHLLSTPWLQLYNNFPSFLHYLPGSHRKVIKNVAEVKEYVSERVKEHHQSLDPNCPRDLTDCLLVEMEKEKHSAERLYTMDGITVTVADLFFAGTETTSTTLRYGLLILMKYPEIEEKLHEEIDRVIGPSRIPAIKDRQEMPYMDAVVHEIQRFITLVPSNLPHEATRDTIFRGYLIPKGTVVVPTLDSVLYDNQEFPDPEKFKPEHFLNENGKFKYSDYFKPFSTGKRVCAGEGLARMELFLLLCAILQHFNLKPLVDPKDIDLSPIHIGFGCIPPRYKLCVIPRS

Sequence of Vasopressin V1a receptor (P37288 whole entry): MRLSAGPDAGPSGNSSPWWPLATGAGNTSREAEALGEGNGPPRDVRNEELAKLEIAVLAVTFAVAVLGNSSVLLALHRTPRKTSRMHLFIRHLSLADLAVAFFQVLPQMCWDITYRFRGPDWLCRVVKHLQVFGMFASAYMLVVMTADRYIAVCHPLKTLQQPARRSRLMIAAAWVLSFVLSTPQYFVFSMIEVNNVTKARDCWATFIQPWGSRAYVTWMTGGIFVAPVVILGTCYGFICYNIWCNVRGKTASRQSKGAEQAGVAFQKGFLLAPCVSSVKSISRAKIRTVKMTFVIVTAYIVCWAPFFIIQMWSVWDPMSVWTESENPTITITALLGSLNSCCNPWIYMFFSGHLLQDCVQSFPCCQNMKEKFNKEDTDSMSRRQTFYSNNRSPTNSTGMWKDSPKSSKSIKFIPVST

CC(C(=O)O)c1ccc2oc(-c3ccc(Cl)cc3)nc2c1 (stereo not drawn) [BENOXAPROFEN]
Not Active: IC50 [1] | Ki [1] | IC50 (Vasopressin V1a receptor) | IC50 [2] | IC50 [3] | IC50 [4] | IC50 [5] | Ki [5] | IC50 [6] | Ki [6] | IC50 [7] | IC50 (Cytochrome P450 2E1) | Ki (Cytochrome P450 2E1)

COc1ccc2cc3[n+](cc2c1OC)CCc1cc2c(cc1-3)OCO2.[Cl-] [BERBERINE CHLORIDE]
Not Active: IC50 [1] | Ki [1] | IC50 (Vasopressin V1a receptor) | IC50 [2] | IC50 [3] | IC50 [4] | IC50 [5] | Ki [5] | IC50 [6] | Ki [6] | IC50 [7] | IC50 (Cytochrome P450 2E1) | Ki (Cytochrome P450 2E1)

O=C(O)CCNC(=O)c1ccccc1 [BETAMIPRON]
Not Active: IC50 [1] | Ki [1] | IC50 (Vasopressin V1a receptor) | IC50 [2] | IC50 [3] | IC50 [4] | IC50 [5] | Ki [5] | IC50 [6] | Ki [6] | IC50 [7] | IC50 (Cytochrome P450 2E1) | Ki (Cytochrome P450 2E1)

CC(=O)Oc1ccc(C(c2ccc(OC(C)=O)cc2)c2ccccn2)cc1 [BISACODYL]
Not Active: IC50 [1] | Ki [1] | IC50 (Vasopressin V1a receptor) | IC50 [2] | IC50 [3] | IC50 [4] | IC50 [5] | Ki [5] | IC50 [6] | Ki [6] | IC50 [7] | IC50 (Cytochrome P450 2E1) | Ki (Cytochrome P450 2E1)

Cc1cc2c(OCC(CNC(C)(C)C)OC(=O)c3ccccc3)cccc2[nH]1 (stereo not drawn) [BOPINDOLOL]
Not Active: IC50 [1] | Ki [1] | IC50 (Vasopressin V1a receptor) | IC50 [2] | IC50 [3] | IC50 [4] | IC50 [5] | Ki [5] | IC50 [6] | Ki [6] | IC50 [7] | IC50 (Cytochrome P450 2E1) | Ki (Cytochrome P450 2E1)

Brc1c(NC2=NCCN2)ccc2nccnc12 [BRIMONIDINE]
Not Active: IC50 [1] | Ki [1] | IC50 (Vasopressin V1a receptor) | IC50 [2] | IC50 [3] | IC50 [4] | IC50 [5] | Ki [5] | IC50 [6] | Ki [6] | IC50 [7] | IC50 (Cytochrome P450 2E1) | Ki (Cytochrome P450 2E1)

CN(C)[C@@H]1C(O)=C(C(N)=O)C(=O)[C@@]2(O)C(O)=C3C(=O)c4c(O)ccc(Cl)c4[C@@](C)(O)[C@H]3C[C@@H]12 [CHLORTETRACYCLINE]
Not Active: IC50 [1] | Ki [1] | IC50 (Vasopressin V1a receptor) | IC50 [2] | IC50 [3] | IC50 [4] | IC50 [5] | Ki [5] | IC50 [6] | Ki [6] | IC50 [7] | IC50 (Cytochrome P450 2E1) | Ki (Cytochrome P450 2E1)

CN/C(=N\CCSCc1nc[nH]c1C)NC#N [CIMETIDINE]
Not Active: IC50 [1] | Ki [1] | IC50 (Vasopressin V1a receptor) | IC50 [2] | IC50 [3] | IC50 [4] | IC50 [5] | Ki [5] | IC50 [6] | Ki [6] | IC50 [7] | IC50 (Cytochrome P450 2E1) | Ki (Cytochrome P450 2E1)

COc1cc(N)c(Cl)cc1C(=O)NC1CCN(CCCOc2ccc(F)cc2)CC1OC (stereo not drawn) [CISAPRIDE]
Not Active: IC50 [1] | Ki [1] | IC50 (Vasopressin V1a receptor) | IC50 [2] | IC50 [3] | IC50 [4] | IC50 [5] | Ki [5] | IC50 [6] | Ki [6] | IC50 [7] | IC50 (Cytochrome P450 2E1) | Ki (Cytochrome P450 2E1)

CCC(=O)O[C@]1(C(=O)CCl)[C@@H](C)C[C@H]2[C@@H]3CCC4=CC(=O)C=C[C@]4(C)[C@@]3(F)[C@@H](O)C[C@@]21C [CLOBETASOL PROPIONATE]
Not Active: IC50 [1] | Ki [1] | IC50 (Vasopressin V1a receptor) | IC50 [2] | IC50 [3] | IC50 [4] | IC50 [5] | Ki [5] | IC50 [6] | Ki [6] | IC50 [7] | IC50 (Cytochrome P450 2E1) | Ki (Cytochrome P450 2E1)

O=C1CN=C(c2ccccc2Cl)c2cc([N+](=O)[O-])ccc2N1 [CLONAZEPAM]
Not Active: IC50 [1] | Ki [1] | IC50 (Vasopressin V1a receptor) | IC50 [2] | IC50 [3] | IC50 [4] | IC50 [5] | Ki [5] | IC50 [6] | Ki [6] | IC50 [7] | IC50 (Cytochrome P450 2E1) | Ki (Cytochrome P450 2E1)

From ChEMBL document CHEMBL1909046, “DrugMatrix in vitro pharmacology data”
